Where a chain is given by its changes, count along the chain named. Read-outs that look alike come from different tables or passages of the source.
Experiments:
[1] = biological target: T1, WT CYP2B4 (Oryctolagus cuniculus, UniProt P00178); test: N-demethylation of benzphetamine in purified reconstituted system; format: biochemical, rabbit; conditions: wild type; 1 mM benzphetamine, varied reductase
T1 sequence (P00178 1-491): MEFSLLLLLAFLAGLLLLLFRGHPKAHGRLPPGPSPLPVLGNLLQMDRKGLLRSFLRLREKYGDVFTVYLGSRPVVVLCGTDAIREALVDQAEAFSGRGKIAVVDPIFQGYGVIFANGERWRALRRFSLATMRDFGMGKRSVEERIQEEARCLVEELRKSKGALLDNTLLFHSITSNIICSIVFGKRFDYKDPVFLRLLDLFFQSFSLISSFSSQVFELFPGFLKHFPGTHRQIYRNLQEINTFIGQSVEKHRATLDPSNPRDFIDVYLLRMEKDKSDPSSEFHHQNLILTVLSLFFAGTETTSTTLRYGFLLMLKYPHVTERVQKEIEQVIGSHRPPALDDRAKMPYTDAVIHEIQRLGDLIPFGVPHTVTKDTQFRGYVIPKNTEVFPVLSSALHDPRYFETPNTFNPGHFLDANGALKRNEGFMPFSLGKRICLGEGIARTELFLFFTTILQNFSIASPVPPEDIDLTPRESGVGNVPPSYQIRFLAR
T1 sequence (P00388 1-678 partner): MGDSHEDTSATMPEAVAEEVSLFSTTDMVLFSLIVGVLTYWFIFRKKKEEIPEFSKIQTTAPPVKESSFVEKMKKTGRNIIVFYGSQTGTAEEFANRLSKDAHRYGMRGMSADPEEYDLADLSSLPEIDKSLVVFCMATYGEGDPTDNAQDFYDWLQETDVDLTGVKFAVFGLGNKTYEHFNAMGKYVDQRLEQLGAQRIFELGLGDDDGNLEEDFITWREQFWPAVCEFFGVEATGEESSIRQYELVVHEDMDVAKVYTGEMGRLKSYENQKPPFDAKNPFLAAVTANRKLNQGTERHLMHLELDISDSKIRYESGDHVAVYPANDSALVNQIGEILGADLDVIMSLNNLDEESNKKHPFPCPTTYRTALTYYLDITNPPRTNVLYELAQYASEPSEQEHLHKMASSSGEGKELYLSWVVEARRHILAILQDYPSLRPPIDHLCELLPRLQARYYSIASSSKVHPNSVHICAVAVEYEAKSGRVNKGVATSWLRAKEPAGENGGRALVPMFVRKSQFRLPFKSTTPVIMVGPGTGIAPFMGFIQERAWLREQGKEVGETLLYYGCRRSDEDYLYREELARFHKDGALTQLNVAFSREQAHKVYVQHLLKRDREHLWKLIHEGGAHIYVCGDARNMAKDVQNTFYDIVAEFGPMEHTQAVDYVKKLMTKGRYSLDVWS

[2] = biological target: T2, CYP2B4 F429H (Oryctolagus cuniculus, UniProt P00178, F429H)
T2 sequence (P00178 1-491 F429H): T1 sequence (P00178 1-491) with F429H

[3] = biological target: T3, CYP2B4 F429H (Oryctolagus cuniculus, UniProt P00178, F429H); remark: listed apart in the source
T3 sequence (P00178 1-491 F429H): T1 sequence (P00178 1-491) with F429H
T3 sequence (P00388 1-678 partner): T1 sequence (P00388 1-678 partner)

[4] = biological target: T4, WT CYP2B4 (Oryctolagus cuniculus, UniProt P00178); conditions: 1 mM benzphetamine, 20 °C
T4 sequence (P00178 1-491): T1 sequence (P00178 1-491)

[5] = biological target: T2, CYP2B4 F429H; conditions: 1 mM benzphetamine, 20 °C
[6] = biological target: T2, CYP2B4 F429H; test: biochemical
[7] = biological target: T5, wild type (WT) CYP2B4 (Oryctolagus cuniculus, UniProt P00178); test: Substrate binding
T5 sequence (P00178 1-491): T1 sequence (P00178 1-491)

[8] = system: P450 (CYP2B4); test: Binding of redox mediator dyes to P450; conditions: data not shown

## C[C@@H](Cc1ccccc1)N(C)Cc1ccccc1 [benzphetamine]
[1]
  Vmax (N-demethylation of BP): 49 ± 5 nmol of product min^–1 (nmol of 450)^−1
[2]; 30 °C, F429H vs WT
  decreased affinity of mutant vs WT: 5 fold
[2]; F429H, with vs without cyt b5
  enhancement of binding by cyt b5: 5–6 fold
[3]; F429H vs wild type
  activity retained relative to wild type (N-demethylation of BP): 3.6%
[3]; F429H, 1 mM benzphetamine, varied reductase
  Vmax (N-demethylation of BP): 1.60 ± 0.05 nmol of product min^–1 (nmol of 450)^−1
[4]
  increase in Em on binding of benzphetamine: 88 mV
[4]; pH 7.4
  redox potential Em with BP: –244 ± 7 mV
[5]
  increase in Em on binding of benzphetamine: 15 mV
[5]; pH 7.4
  redox potential Em with BP: –230 ± 8 mV
[6]; Ks, F429H, no reductase, no cyt b5, 15 °C
  Kd: 900 ± 200 µM
[6]; Ks, F429H, no reductase, no cyt b5, 30 °C
  Kd: 390 ± 80 µM
[6]; Ks, F429H, no reductase, with cyt b5, 15 °C
  Kd: 150 ± 60 µM
[6]; Ks, F429H, with reductase, no cyt b5, 15 °C
  Kd: 830 ± 220 µM
[7]; Ks, WT, no reductase, no cyt b5, 15 °C
  Kd: 250 ± 7 µM
[7]; Ks, WT, no reductase, no cyt b5, 30 °C
  Kd: 80 ± 20 µM
[7]; Ks, WT, no reductase, with cyt b5, 15 °C
  Kd: 58 ± 6 µM
[7]; Ks, WT, with reductase, no cyt b5, 15 °C
  Kd: 220 ± 10 µM

## c1ccc(C[n+]2ccc(-c3cc[n+](Cc4ccccc4)cc3)cc2)cc1 [benzyl viologen]
[8]
  spectral change on addition of dye to P450: did not cause any spectral change

## Cc1cc(C(C)(C)C)c(O)c(C(C)(C)C)c1 [butylated hydroxytoluene, 2,6-di-tert-butyl-4-methylphenol]
[6]
  Kd: 1.82 ± 0.24 µM
[7]
  Kd: 0.31 ± 0.14 µM

## Nc1ccc2nc3ccc(N)cc3[n+](-c3ccccc3)c2c1.[Cl-] [phenosafranin]
[8]
  spectral change on addition of dye to P450: did not cause any spectral change
